“And” between values parts separate entries of the source, which are not always exact repeats. Equal entries are not always repeated. “Also recorded” adds a separate entry of the source.
How the values were obtained:
[1] = system: CRP production in human Hep3B cells; experiment: Human Hep3B cells CRP assay (IL-1β, IL-6 and dexamethasone stimulated, CRP ELISA); assay type: cell-based; settings: for reducing CRP production/levels (in words): Hep3B cells stimulated with IL-1B, IL-6 and dexamethasone
Description: A. Human Hep3B Cells—CRP assay. Hep3B Cell Line is obtained from the American Type Culture Collection (ATCC Catalog No. HB-8064). The Hep3B cell line was derived from liver tissue of […]. The cells are epithelial in morphology and produce tumors in nude mice. The cells produce α-fetoprotein, hepatitis B surface antigen, albumin, α-2-macroglobulin, α-1-antitrypsin, transferrin, plasminogen, complement C3 and β-lipoprotein (Knowles B B, et al., Science, 1980, 209:497–499). This cell line has been widely used to study hepatocyte cytokine and acute phase protein release (e.g., Damtew B, et al., 1993, J Immunol 150:4001–4007).
HEP3B cells are grown in Minimum Essential Medium (MEM; GIBCO) supplemented with 10% Fetal Bovine Serum (FBS; Hyclone), 1× Penicillin/Streptomycin (GIBCO, Cat #. 15140-122) and 0.1 mM non-essential amino acids (GIBCO, Catalog No. 11140-050). Cells are thawed and transferred to warm medium according to standard methods known in the art.
Cells are incubated in flasks at 37° C. with 5% CO2 in an air atmosphere incubator. HEP3B growth media is changed every 2 days until the cells reach 70–80% confluence (approx. 3–4 days). For assay, the cells are transferred to 96-well plates, seeded at 5000 cells per well in culture media, and left to grow for 7 days in a 37° C. incubator (air supplemented with 5% CO2). Media is replaced daily until assay.
Test compounds are diluted into “Stimulus Buffer” (MEM medium containing 0.1 mM non-essential amino acids, 1× penicillin/streptomycin, 10% FBS with 10 ng/ml IL-1β, 20 ng/ml IL-6 and 1 μM dexamethasone. Media is removed from the cells and is replaced with 200 μl of test dilution. Cells are returned to the incubator for three days at 37° C. CRP ELISA is then performed on supernatant from the cells, as described below.
Costar EIA/RIA plates are coated with rabbit anti-human CRP (DAKO) diluted 1:4000 in carbonate buffer (100 μl/well) for 45 minutes at 37° C. Plates are then washed 5× with CRP washing buffer (50 mM Tris-HCI, 0.3M NaCl, […], pH 8.0) using an automatic plate washer. Plates may be dried, covered and refrigerated until use. Supernatant (100 μl) is removed from each well of the test plates and added to the corresponding well of a precoated ELISA plate.
100 μl HRP-conjugated rabbit anti-human CRP (DAKO) diluted 1:500 (in CRP wash buffer) is added to each well, followed by incubation for 30 minutes at 37° C. […] Finally, 50 μl of 1M H2SO4 is added to each well and absorbance at 450 nm is immediately measured in a microtiter spectrophotometer.
CRP measured as above is normalized to cell count per well, using a cell viability assay, such as the Cell Tracker Green assay. […] Plates are immediately read using a Fluoroskan® flourometer with a 485 excitation/538 emission filter pair.

[2] = system: expression of ELAM; experiment: Cell-ELAM (E-selectin) assay in LPS/IL-1β stimulated endothelial cells; assay type: cell-based; settings: for ELAM production (in words): activated endothelial cells
Description: Cell-ELAM Assay. Endothelial-Leukocyte Adhesion Molecule (ELAM), also known as E-selectin, is expressed on the surface of endothelial cells. In this assay, lipopolysaccharide (LPS) and IL-1β are used to stimulate the expression of ELAM; test agents are tested for their abilities to reduce this expression, in accordance with studies showing that reduction of leukocyte adhesion to endothelial cell surface is associated with decreased cellular damage (e.g., Takada, M., Et al., Transplantation 64: 1520–25, 1997; Steinberg, J. B., et al., J. Heart Lung Trans. 13:306–313, 1994).
Endothelial cells may be selected from any of a number of sources and cultured according to methods known in the art; including, for example, coronary artery endothelial cells, human brain microvascular endothelial cells (HBMEC; Hess, D. C., et al., Neurosci. Lett. 213(1): 37–40, 1996), or lung endothelial cells. Cells are conveniently cultured in 96-well plates. Cells are stimulated by adding a solution to each well containing 10 μg/ml LPS and 100 pg/ml IL-1β for 6 hours in the presence of test agent (specific concentrations and time may be adjusted depending on the cell type). Treatment buffer is removed and replaced with pre-warmed Fixing Solution® (100 μl/well) for 25 minutes at room temperature. Cells are then washed 3×, then incubated with Blocking Buffer (PBS+2% FBS) for 25 minutes at room temperature. Blocking Buffer containing Monoclonal E-Selectin Antibody (1:750, Sigma Catalog #S-9555) is added to each well. Plates are sealed and stored at 4° overnight. Plates are washed 4× with 160 μL Blocking Buffer per well. Second Antibody-HRP diluted 1:5000 in Blocking Buffer is then added (100 μL/well), and plates are incubated at room temperature (protected from light) for two hours. Plates are then washed 4× with Blocking Buffer before addition of 100 μL of ABTS Substrate solution at room temperature (Zymed, Catalog #00–2024). Wells are allowed to develop for 35 minutes, before measurement at 402 nm in a Fluoroskan® Reader with shake program for 10 seconds. Positive results are recorded as a decrease in ELAM concentration in tested wells, as compared to control wells.

[3] = system: inflammation secondary to exposure to arachidonic acid; experiment: Arachidonic acid mouse ear inflammation model; assay type: in vivo; settings: topical to left ear, CD-1 mice, one hour after treatment
Description: This assay measures the ability of test compounds to prevent or reduce inflammation secondary to oxazolone or arachidonic acid.
A. Arachidonic acid. Albino male CD-1 mice, 7–9 weeks old were used in this test. A 20% (w/v) arachidonic acid solution in acetone is prepared. Twenty microliters of the arachidonic acid solution is applied to the dorsal left ear of the mouse. Immediately thereafter, test compounds (20 μL in 70% ethanol/30% propylene glycol) are applied to the left ear. The untreated right ears served as control. Mice are sacrificed by CO2 inhalation, one hour after treatment. The left and right ears are removed and 7 mm punch biopsies taken from each. The punch biopsies are weighed, and the differences calculated. […] Other non-alpha-tocopherol enriched tocopherol compositions can be tested for their ability to reduce inflammation in this model.

[4] = system: IL-6 present in edematous fluid; experiment: Carrageenan-induced rat paw edema assay, IL-6 in edematous fluid; assay type: in vivo; settings: rats

Row | SMILES | reducing CRP production/levels (in words) [1] | reducing CRP levels ([1]; at about 3 to about 10 micromolar, Hep3B cells) | ELAM production (in words) [2] | activity in ELAM assay ([2]; at 1000 micromolar) | reduce inflammation secondary to arachidonic acid (ear punch weight difference) [3] | IL-6 levels in the edematous fluid (in words) ([4]; 10–100 mg/kg oral pretreatment over 3 days) | reduction in IL-6 present in edematous fluid ([4]; 3 days, 10–100 mg/kg/day oral pre-treatment, p<0.001) | EC50 ([2]; endothelial cells, LPS and IL-1β, read-out: EC50 reduce the expression of ELAM)
1 | Cc1cc(O)c(C)c2c1OC(C)(CCCC(C)CCCC(C)CCCC(C)C)CC2 (stereo not drawn) [beta-tocopherol, 3,4-dihydro-2,5,8-trimethyl-2-(4,8,12-trimethyltridecyl)-2H-1-benzopyran-6-ol] | effective; also recorded: able to reduce | about 50% | decreased |  |  |  |  | 
2 | Cc1c(C)c2c(c(C)c1O)CC[C@@](C)(CCC[C@H](C)CCC[C@H](C)CCCC(C)C)O2 (relative stereo) [alpha-tocopherol, [2R-2R*(4R*,8R*)]-3,4-dihydro-2,5,7,8-tetramethyl-2-(4,8,12-trimethyltridecyl)-2H-1-benzopyran-6-ol, reference compound] |  |  | not | not active |  |  |  | 
3 | Cc1c(O)cc2c(c1C)OC(C)(CCCC(C)CCCC(C)CCCC(C)C)CC2 (stereo not shown) [gamma-tocopherol, 3,4-dihydro-2,7,8-trimethyl-2-(4,8,12-trimethyltridecyl)-2H-1-benzyopyran-6-ol] | effective; also recorded: able to reduce |  | decreased |  | able to reduce inflammation | significantly reduced | 42 | 
4 | Cc1cc(O)cc2c1O[C@](C)(CCC[C@H](C)CCC[C@H](C)CCCC(C)C)CC2 (relative stereo) [delta-tocopherol, [2R-[2R*(4R*,8R*)]]-3,4-dihydro-2,8-dimethyl-2-(4,8,12-trimethyltridecyl)-2H-1-benzo-pyran-6-ol] | effective; also recorded: able to reduce |  | decreased |  |  |  |  | 300 to 1000 µM and 600 µM
